What was measured:
[1] = test system: aggregation of thrombocytes; experiment: ADP-induced aggregation of thrombocytes after intravenous administration (in vivo); parameters: species or system rabbit
Procedure: The experiments were carried out on male rabbits of the “Chinchilla” breed having a mass of 2.7±0.3 kg. 18-24 hours prior to the experiment they were deprived of feed while preserving free access to water.
To obtain plasma enriched with thrombocytes, blood was taken from a cut of a marginal vein of the rabbit ear, the sample was stabilized with 3.8% of sodium citrate solution in a ratio of 9:1 and centrifuged at 200 g (1000 rev/min) for 10 minutes. The top supernatant layer enriched with thrombocytes was transferred by an automatic dropper into a silicone test tube and kept at 37° C. The plasma enriched with thrombocytes contained, on the average, […]. If this content exceeded the specified 3×10^8 blood platelets in 1 liter, this sample was diluted to the necessary concentration with plasma deprived of thrombocytes, which was obtained by centrifuging blood at 650 g during 10 minutes.
The measurements of the optical density of the samples were made on two-channel aggregometer of the “Chronolog” Company (USA). A flask containing 490 mkl of plasma rich with thrombocytes was placed in a device, into which a magnetic agitator covered with Teflon was lowered. The index of maximum amplitude of aggregation (MA) in percent of a fall of the plasma optical density under effect of the aggregation inductor was recorded. The control index MA of plasma was compared with the MA of plasma incubated for 3 minutes with different concentrations of the compounds: from 10^−3 to 10^−7 in vitro experiments or with plasma obtained 15, 30, 60 and 120 minutes after intravenous administration of different doses of the compounds in vivo experiments.
The process of aggregation of thrombocytes was recorded with the help of a computer; on the monitor screen the there were depicted curves reflecting changes of the optical density of the plasma enriched which was taken as a standard 100% compared to the optical density of the non-thrombocyte plasma taken for 0% content of thrombocytes.
The antiaggregative capability of compounds 2, 15, 21, 37, according to the invention was tested in experiments in vivo. Introduced to the test animals intravenously were an aggregation inductor ADP at a concentration of 10^−5 M was and then the compounds according to the invention. The doses of the compounds were in a range from 15 to 60 mg/kg.
For leveling the different effects of the compounds in different days due the ambient temperature, humidity and other parameters, 2 animals of each series were taken for experiments every day. Under “series” there is understood a group of 6 animals used for studying one of the doses of the compounds.
The blood for obtaining plasma enriched with thrombocytes was taken from marginal vein of the rabbit ear: in the control group—directly before introducing the tested compounds; in investigated groups—15 minutes after introducing these compounds and then after 30, 60, 120 minutes and so on up to the moment when the effect of suppression of aggregation disappeared.
The quantity of thrombocytes was counted before the experiment and at the end thereof in each plasma sample.

[2] = test system: metabolism of nitrogen oxide; experiment: Morphine abstinence model: nitrites and nitrates NOX− in blood plasma, liver and brain; type: in vivo, rats Wistar; conditions: for Nitrites in blood plasma, Control + Compound / Nitrites in brain, Cortex of cerebrum, Control + Compound / Nitrites in brain, Hypothalamus, Control + Compound / Nitrites in brain, Mesencephalon, Control + Compound / Nitrites in liver, Control + Compound: compound alone 20.0 mg/kg intramuscularly; for Nitrites in blood plasma, Control + Morphine + compound / Nitrites in brain, Cortex of cerebrum, Control + Morphine + compound / Nitrites in brain, Hypothalamus, Control + Morphine + compound / Nitrites in brain, Mesencephalon, Control + Morphine + compound / Nitrites in liver, Control + Morphine + compound: morphinized rats then compound 20.0 mg/kg intramuscularly
Procedure: The experiments were carried out on rats in series of 7 animals on each compound according to the invention. Non-morphinized animal with not administered with compounds according to the invention were used as a control group. […] Then the rats were decapitated, the blood from somnolent arteries was collected in test tubes with solution EDTA as an anticoagulant, centrifuged at 1500 g for 15 minutes at 4° C.
To estimate the intensity of metabolism of nitrogen oxide in rats, quantitative determination of stable metabolites of nitrogen oxide—nitrites and nitrates NOX^− in the blood plasma, supernatanates of the liver and thymus gland, a study was conducted by a spectrometric method, and in the brain supernatanates by a […] method.
The spectrometric method is based the reaction of nitrites with the Griss reagent (a mixture of 2% solution of sulfanilamide and 0.2% N-(1-naphthyl)ethylene diamine. At the first step the nitrite reacts with sulfanilamide with formation of diazonium salt, and then with the second component to form azo dye with an adsorption maximum at 540 nm. For reduction of nitrates into nitrites, a fermentative method was used with bacterial reductase nitrate (Grisham M. B. et al., 1995). The samples of plasma and supernatant of the liver deproteinizated at 100° C. for 5 minutes incubated for 30 minutes at 37° C. in 50.0 mM of HEPES pH 7.4 in the presence of 0.2 unit/ml of Aspergillus reductase nitrate, 5.0 mkM of FAD and 0.1 mM of NAD-Ph. At the end of the reaction lactate dehydrogenase and pyruvate were added for isolation of NAD-Ph interfering with the Griss reaction. Then the Griss reagent was added and after 10-minute incubation the light absorption of the samples was measured at 540 nm. To amount of NOX^− was calculated using sodium nitrate as a standard.
The fluorometric method is based on calculation of the nitrite level by the intensity fluorescence of 2,3-diaminonaphthotriazole, a product of reaction of 2,3-diaminonaphthalene (DAN) and nitrite in an acidic medium (Misko T. R., Schilling R. J., Salvemini D. et al. “A fluorometric assay for the measurement of nitrite of biological samples”. Anal. Biochem., 1993, v. 214, p. 11-16). The brain supernatants deproteinizated at 100° C. were placed in a nitrite regenerating system containing 0.125 unit/ml of nitrate reductases, 25 mkM NADPh and 25 mkM FAD prepared in a 20-mM Tris-HCl buffer with pH 7.6 and incubated for 30 minutes at 37° C. The lactatedehydrogenase/pyruvate system was used for oxidation of the NADPh. Then 316 mkM of the DAN solution in 0.62 M of hydrochloric acids were added and the mixture was incubated for 10 minutes in darkness.
280 mM of NaOH were added for stabilization of the fluorescence of the formed 2,3-diaminonaphthotriazole. The fluorescence intensity was measured in the spectrofluorimeter Hitachi F-3000 at a wavelength of excitation of 365 nm and an emission of 405 nm. The concentration of NOX^− in the brain was calculated by means of a standard solution of sodium nitrate.

SMILES | MA, %, After 15 minutes ([1]; dose 15.0 mg/kg intravenously) | MA, %, After 30 minutes ([1]; dose 15.0 mg/kg intravenously) | MA, %, After 60 minutes ([1]; dose 15.0 mg/kg intravenously) | MA, %, After 120 minutes ([1]; dose 15.0 mg/kg intravenously) | MA, %, After 15 minutes ([1]; dose 30.0 mg/kg intravenously) | MA, %, After 30 minutes ([1]; dose 30.0 mg/kg intravenously) | MA, %, After 60 minutes ([1]; dose 30.0 mg/kg intravenously) | MA, %, After 120 minutes ([1]; dose 30.0 mg/kg intravenously) | MA, %, After 15 minutes ([1]; dose 60.0 mg/kg intravenously) | MA, %, After 30 minutes ([1]; dose 60.0 mg/kg intravenously) | MA, %, After 60 minutes ([1]; dose 60.0 mg/kg intravenously) | MA, %, After 120 minutes ([1]; dose 60.0 mg/kg intravenously) | Nitrites in blood plasma, Control + Compound [2] | Nitrites in brain, Cortex of cerebrum, Control + Compound [2] | Nitrites in brain, Hypothalamus, Control + Compound [2] | Nitrites in brain, Mesencephalon, Control + Compound [2] | Nitrites in liver, Control + Compound [2] | Nitrites in blood plasma, Control + Morphine + compound [2] | Nitrites in brain, Cortex of cerebrum, Control + Morphine + compound [2] | Nitrites in brain, Hypothalamus, Control + Morphine + compound [2] | also measured
Nc1ccnc2c(=O)n([C@@H]3O[C@H](CO)[C@@H](O)[C@H]3O)[nH]c(=O)c12 [Compound 2, 4-amino-7-(β-D-ribofuranosile)pyrido[2,3-d]-6H-pyridazine-5,8-dione] | 44.2 ± 2.0 % | 42.2 ± 1.6 % | 46.9 ± 1.7 % | 49.2 ± 2.0% | 45.3 ± 2.0 % | 43.7 ± 1.7 % | 40.1 ± 2.2 % | 59.7 ± 2.2% | 45.2 ± 1.2 % | 43.6 ± 2.0 % | 47.8 ± 1.5% | 48.0 ± 1.2% | – | – | – | – | – | – | – | – | –
Nc1cnc2c(=O)n([C@@H]3O[C@H](CO)[C@@H](O)[C@H]3O)[nH]c(=O)c2n1.[Na] [Compound 21, sodium salt of 3-amino-7-(β-D-ribofuranosile)pyrazine[2,3-d]-6H-pyridazine-5,8-dione] | 43.5 ± 1.7 % | 43.3 ± 1.7 % | 46.7 ± 1.5 % | 49.1 ± 1.7% | 46.7 ± 1.9 % | 45.4 ± 1.8 % | 45.0 ± 1.9% | 60.3 ± 2.1% | 45.1 ± 0.9 % | 43.2 ± 2.0 % | 47.3 ± 1.6% | 48.3 ± 1.5% | – | – | – | – | – | – | – | – | –
O=c1[nH][nH]c(=O)c2c(Br)ncnc12.[K] [Compound 37, potassium salt of 4-bromine-pyrimido[4,5-D]-6H-pyridazine-5,8-dione] | 42.9 ± 1.6 % | 41.9 ± 1.6 % | 45.9 ± 1.6% | 48.7 ± 2.1% | 43.5 ± 2.0 % | 42.0 ± 1.4 % | 41.6 ± 1.4 % | 58.4 ± 1.7% | 43.4 ± 1.8 % | 42.4 ± 0.7 % | 46.2 ± 2.0% | 47.3 ± 1.7% | 16.13 ± 1.80 mkmol/ml | 4.36 ± 0.24 nmol/mg of protein | 6.79 ± 0.92 nmol/mg of protein | 6.84 ± 0.56 nmol/mg of protein | 0.262 ± 0.018 nmol/mg of protein | 15.33 ± 0.87 mkmol/ml | 4.77 ± 0.28 nmol/mg of protein | 6.52 ± 0.83 nmol/mg of protein | Nitrites in brain, Mesencephalon, Control + Morphine + compound [2]: 5.63 ± 0.37 nmol/mg of protein; Nitrites in liver, Control + Morphine + compound [2]: 0.274 ± 0.01 nmol/mg of protein
Nc1cccc2c(=O)[nH][nH]c(=O)c12.[Na] [Compound 15, sodium salt of 5-amino-benzo[d]-3H-pyridazine-1,4-dione] | 42.8 ± 1.8 % | 41.8 ± 1.5 % | 45.6 ± 1.5 % | 48.3 ± 2.3 % | 43.2 ± 2.2 % | 41.8 ± 1.9 % | 37.8 ± 1.8 % | 58.1 ± 1.7% | 43.1 ± 1.5 % | 41.3 ± 1.5 % | 44.7 ± 0.8% | 47.2 ± 1.6% | 14.39 ± 0.84 mkmol/ml | 4.31 ± 0.37 nmol/mg of protein | 6.77 ± 0.83 nmol/mg of protein | 6.65 ± 0.70 nmol/mg of protein | 0.259 ± 0.019 nmol/mg of protein | 13.91 ± 1.91 mkmol/ml | 4.72 ± 0.37 nmol/mg of protein | 6.57 ± 0.88 nmol/mg of protein | Nitrites in brain, Mesencephalon, Control + Morphine + compound [2]: 5.50 ± 0.43 nmol/mg of protein; Nitrites in liver, Control + Morphine + compound [2]: 0.285 ± 0.02 nmol/mg of protein
O=c1[nH][nH]c(=O)c2nccnc12.[Li] [Compound 25, lithium salt of pyrazine[2,3-d]-6H-pyridazine-5,8-dione] | – | – | – | – | – | – | – | – | – | – | – | – | 17.10 ± 2.05 mkmol/ml | 4.47 ± 0.43 nmol/mg of protein | 6.87 ± 0.80 nmol/mg of protein | 6.98 ± 1.02 nmol/mg of protein | 0.307 ± 0.012 nmol/mg of protein | 16.78 ± 2.11 mkmol/ml | 4.91 ± 0.32 nmol/mg of protein | 6.67 ± 0.79 nmol/mg of protein | Nitrites in brain, Mesencephalon, Control + Morphine + compound [2]: 5.91 ± 0.74 nmol/mg of protein; Nitrites in liver, Control + Morphine + compound [2]: 0.287 ± 0.01 nmol/mg of protein

— patent US20070166547A1, “Use of a layer consisting of hydrophobic linear, or two-dimensional polycyclic aromatics as a barrier layer or an encapsulation and electric components constructed with a layer of this type and comprising organic polymers” (priority 2003, published 2007)
